Measured values published in patent publication US20110070190A1 (Roche Palo Alto LLC, priority 2009, published 2011).

Columns and labels:
[1] = molecular target: T1, HCV polymerase (NS5B570n-Con1) (Hepatitis C virus genotype 1b, UniProt Q9WMX2); test: HCV NS5B RNA polymerase activity (incorporation of radiolabeled nucleotide into acid insoluble RNA); assay type: biochemical, HCV Con1 strain
T1 construct: a 21 amino acid C-terminal deletion of full-length HCV polymerase; made in house; host or cells: E. coli BL21(DE3) pLysS, plasmid pET17b
Experimental: The enzymatic activity of HCV polymerase (NS5B570n-Con1) was measured as the incorporation of radiolabeled nucleotide monophosphates into acid insoluble RNA products. Unincorporated radiolabeled substrate was removed by filtration and scintillant was added to the washed and dried filter plate containing radiolabeled RNA product. The amount of RNA product generated by NS5B570n-Con1 at the end of the reaction was directly proportional to the amount of light emitted by the scintillant.
The HCV polymerase used in the enzymatic activity assay is a 21 amino acid C-terminal deletion of full-length HCV polymerase derived from HCV Con1 strain, genotype 1b (GenBank accession number AJ242654) (NS5B570n-Con1). The NS5B570n-Con1 was sub-cloned downstream to the T7 promoter of the plasmid expression construct pET17b and transformed into E. coli strain BL21(DE3) pLysS for protein expression. A single colony was used to start an innoculum for a 10 L culture in LB media supplemented with 100 μg/mL ampicillin at 37° C. Protein expression was induced by the addition of 0.25 mM isopropyl-β-D-thiogalactopyranoside (IPTG) when the optical density of the culture at […] was 0.8. Induction of protein expression was carried out at 30° C. for 16 h after which the cells were harvested by centrifugation. NS5B570n-Con1 was purified to homogeneity using a three-column purification protocol including subsequent column chromatography on Ni-NTA, SP-Sepharose HP and Superdex 75 resins.
Enzymatic reactions in the presence of cIRES RNA template (see paragraph [00213]) contained 20 nM cIRES RNA, 20 nM NS5B570n-Con1 enzyme, 0.5 μCi of tritiated UTP (Perkin Elmer catalog no. TRK-412; specific activity: 30 to 60 Ci/mmol;), 1 μM each ATP, CTP, and GTP, 40 mM Tris-HCl pH 8.0, 40 mM NaCl, 4 mM DTT (dithiothreitol), 4 mM MgCl2, 5 μl of compound serial diluted in DMSO, and nuclease-free water to a final reaction volume of 50 μl. Enzymatic reactions in the presence of poly A RNA template (see paragraph [00213]) contained 20 nM Poly A:oligo(rU)16 premixed (see section 0004), 20 nM NS5B570n-Con1 enzyme, 1 μCi of tritiated UTP (Perkin Elmer catalog no. TRK-412; specific activity: 30 to 60 Ci/mmol), 40 mM Tris-HCl pH 8.0, 40 mM NaCl, 4 mM DTT (dithiothreitol), 4 mM MgCl2, 5 μl of compound serial diluted in DMSO, and nuclease-free water to a final reaction volume of 50 μl. Reaction mixtures were assembled in 96-well filter plates (cat #MADVN0B, Millipore Co.) and incubated for 2 h at 30° C. Reactions were stopped by addition of 10% final (v/v) trichloroacetic acid and incubated for 40 min at 4° C. Reactions were filtered, washed with 8 reaction volumes of 10% (v/v) trichloroacetic acetic acid, 4 reaction volumes of 70% (v/v) ethanol, air dried, and 25 μl of scintillant (Microscint 20, Perkin-Elmer) was added to each reaction well.
Two RNA templates were used to assay compounds described herein. The cIRES RNA template was 377 nucleotide long and consisted of a partial complementary sequence (36 nucleotides) of the core protein, followed by 341 nucleotide of the complementary sequence of the internal ribosome entry site. The poly A RNA template (GE Amersham catalog number 27-4110) was a homopolymeric RNA pre-annealed to a oligo(rU)16 primer at a molar ratio of 3-to-1 (primer-template).
The amount of light emitted from the scintillant was converted to counts per minute (CPM) on a Topcount® plate reader (Perkin-Elmer, Energy Range: Low, Efficiency Mode: Normal, Count Time: 1 min, Background Subtract: none, Cross talk reduction: Off).
Data was analyzed in Excel® (Microsoft®) and ActivityBase® (Idbs®). The reaction in the absence of enzyme was used to determine the background signal, which was subtracted from the enzymatic reactions. Positive control reactions were performed in the absence of compound, from which the background corrected activity was set as 100% polymerase activity. All data was expressed as a percentage of the positive control. […]

HCV = settings: cited from earlier work

Question: For `N#Cc1ccc(-c2cc3c(s2)c(=O)ncn3Cc2ccc(Cl)cc2)cc1` [Compound I-52, 4-[1-(4-Chloro-benzyl)-4-oxo-1,4-dihydro-thieno[3,2-d]pyrimidin-6-yl]-benzonitrile], which melting point is on record?
Answer: > 300 °C

Question: What about the IC50 [1] of the same compound?
Answer: 1600 nM

Question: Which melting point does the source give for `O=c1ncn(Cc2ccc(Cl)cc2)c2cc(-c3ccc(OCc4ccccn4)cc3)sc12` [Compound I-28, 1-(4-Chloro-benzyl)-6-[4-(pyridin-2-ylmethoxy)-phenyl]-1H-thieno[3,2-d]pyrimidin-4-one] here?
Answer: 233 to 235 °C

Question: And the IC50 [1]?
Answer: 51 nM

Question: For `O=c1ncn(Cc2ccc(Cl)cc2)c2cc(-c3ccc(OCc4ccncc4)cc3)sc12` [Compound I-58], which melting point is on record?
Answer: 257 to 259 °C

Question: And the IC50 [1]?
Answer: 49 nM

Question: For `O=c1ncn(Cc2ccc(Cl)cc2)c2cc(-c3ccc(NCc4ccccn4)cc3)sc12` [Compound I-23], which IC50 [1] is on record?
Answer: 139 nM

Question: For `Cc1cc(N)n2nc(-c3ccc(-c4cc5c(s4)c(=O)ncn5C[C@H]4CC[C@@H](C)CC4)cc3Cl)cc2n1` [Compound I-4, 6-[4-(7-amino-5-methyl-pyrazolo[1,5-a]pyrimidin-2-yl)-3-chloro-phenyl]-1-(4-methyl-cyclohexylmethyl)-1H-thieno[3,2-d]pyrimidin-4-one], which IC50 [1] is on record?
Answer: 10 nM

Question: With `Cc1ncoc1C(=O)Nc1ccc(-c2cc3c(s2)c(=O)ncn3Cc2ccc(Cl)cc2)cc1` [Compound I-18, 4-Methyl-oxazole-5-carboxylic acid {4-[1-(4-chloro-benzyl)-4-oxo-1,4-dihydro-thieno[3,2-d]pyrimidin-6-yl]-phenyl}-amide] as the compound, how does the IC50 [1] read?
Answer: 77 nM

Question: With `Cc1ccc(Cn2cnc(=O)c3sc(-c4ccc(-c5cc6ncccc6o5)cc4)cc32)cc1` [Compound I-19, 6-(4-Furo[3,2-b]pyridin-2-yl-phenyl)-1-(4-methyl-benzyl)-1H-thieno[3,2-d]pyrimidin-4-one] as the compound, how does the IC50 [1] read?
Answer: 82 nM

Question: For `COc1ccc(COc2ccc(-c3cc4c(s3)c(=O)ncn4Cc3ccc(Cl)cc3)cc2)cc1` [Compound I-11, 1-(4-chloro-benzyl)-6-[4-(4-methoxy-benzyloxy)-phenyl]-1H-thieno[3,2-d]pyrimidin-4-one], which IC50 [1] is on record?
Answer: 32 nM

Question: For `O=c1ncn(Cc2ccc(Cl)cc2)c2cc(-c3ccc(OCc4cccnc4)cc3)sc12` [Compound I-50, 1-(4-Chloro-benzyl)-6-[4-(pyridin-3-ylmethoxy)-phenyl]-1H-thieno[3,2-d]pyrimidin-4-one], which melting point is on record?
Answer: 255 to 257 °C

Question: And the IC50 [1]?
Answer: 103 nM

Question: Which IC50 [1] does the source give for `O=c1ncn(Cc2ccc(Cl)cc2)c2cc(-c3ccc(NCc4ccccc4)cc3)sc12` [Compound I-49, 6-(4-Benzylamino-phenyl)-1-(4-chloro-benzyl)-1H-thieno[3,2-d]pyrimidin-4-one] here?
Answer: 377 nM

Question: For `O=C(Nc1ccc(-c2cc3c(s2)c(=O)ncn3Cc2ccc(Cl)cc2)cc1)c1ccno1` [Compound I-32, Isoxazole-5-carboxylic acid {4-[1-(4-chloro-benzyl)-4-oxo-1,4-dihydro-thieno[3,2-d]pyrimidin-6-yl]-phenyl}-amide], which IC50 [1] is on record?
Answer: 308 nM

Question: With `O=c1ncn(Cc2ccc(Cl)cc2)c2cc(-c3ccc(SCc4ccccc4)cc3)sc12` [Compound I-20, 6-(4-Benzylsulfanyl-phenyl)-1-(4-chloro-benzyl)-1H-thieno[3,2-d]pyrimidin-4-one] as the compound, how does the IC50 [1] read?
Answer: 104 nM

Question: With `CC(CCO)C(=O)Nc1ccc(-c2cc3c(s2)c(=O)ncn3Cc2ccc(Cl)cc2)cc1Cl` (stereo not drawn) [Compound I-35] as the compound, how does the IC50 [1] read?
Answer: 517 nM

Question: With `Cc1ccc(Cn2cnc(=O)c3sc(-c4ccccc4)cc32)c(F)c1` [Compound I-21] as the compound, how does the melting point read?
Answer: 225.1 to 225.8 °C

Question: And the IC50 [1]?
Answer: 126 nM

Question: With `O=c1ncn(Cc2ccc(Cl)cc2)c2cc(-c3ccc(N4CCCC4)cc3)sc12` [Compound I-56, 1-(4-Chloro-benzyl)-6-(4-pyrrolidin-1-yl-phenyl)-1H-thieno[3,2-d]pyrimidin-4-one] as the compound, how does the IC50 [1] read?
Answer: 1610 nM

Question: Which results are given for `O=c1ncn(Cc2ccc(Cl)cc2)c2cc(-c3ccc(OCc4ccccn4)c(Cl)c3)sc12` [Compound I-6, 1-(4-chloro-benzyl)-6-[3-chloro-4-(pyridin-2-ylmethoxy)-phenyl]-1H-thieno[3,2-d]pyrimidin-4-one]?
Answer: melting point: 272 to 274 °C; IC50 [1]: 18 nM

Question: With `Cc1ccc(Cn2cnc(=O)c3sc(-c4ccc(C(=O)O)cc4)cc32)cc1` [Compound I-36] as the compound, how does the IC50 [1] read?
Answer: 535 nM

Question: For `Nc1nccc(-c2ccc(-c3cc4c(s3)c(=O)ncn4Cc3ccc(Cl)cc3)cc2)n1` [Compound I-10, 6-[4-(2-Amino-pyrimidin-4-yl)-phenyl]-1-(4-chloro-benzyl)-1H-thieno[3,2-d]pyrimidin-4-one], which IC50 [1] is on record?
Answer: 29 nM

Question: With `O=C(Nc1ccc(-c2cc3c(s2)c(=O)ncn3Cc2ccc(Cl)cc2)cc1F)c1ccccc1` [Compound I-14, N-{4-[1-(4-Chloro-benzyl)-4-oxo-1,4-dihydro-thieno[3,2-d]pyrimidin-6-yl]-2-fluoro-phenyl}-benzamide] as the compound, how does the IC50 [1] read?
Answer: 69 nM

Question: For `O=C(CCCO)Nc1ccc(-c2cc3c(s2)c(=O)ncn3Cc2ccc(Cl)cc2)cc1Cl` [Compound I-30, N-{2-Chloro-4-[1-(4-chloro-benzyl)-4-oxo-1,4-dihydro-thieno[3,2-d]pyrimidin-6-yl]-phenyl}-4-hydroxy-butyramide], which IC50 [1] is on record?
Answer: 279 nM

Question: What does the source list for `Cc1ccc(Cn2cnc(=O)c3sc(-c4ccc(C(C)(C)C)cc4)cc32)cc1` [Compound I-29]?
Answer: melting point: 260.5 to 261.5 °C; IC50 [1]: 223 nM

Question: What does the source list for `Cc1cc(N)nc(COc2ccc(-c3cc4c(s3)c(=O)ncn4Cc3ccc(Cl)cc3)cc2)n1` [Compound I-45, 6-[4-(4-Amino-6-methyl-pyrimidin-2-ylmethoxy)-phenyl]-1-(4-chloro-benzyl)-1H-thieno[3,2-d]pyrimidin-4-one]?
Answer: melting point: 272 to 274 °C; IC50 [1]: 372 nM

Question: With `O=c1ncn(Cc2ccc(Cl)cc2)c2cc(-c3ccc(OCc4cnccn4)cc3)sc12` [Compound I-16, 1-(4-chloro-benzyl)-6-[4-(pyrazin-2-ylmethoxy)-phenyl]-1H-thieno[3,2-d]pyrimidin-4-one] as the compound, how does the melting point read?
Answer: 236.9 to 239.6 °C

Question: What about the IC50 [1] of the same compound?
Answer: 71 nM

Question: With `Cc1ccc(Cn2cnc(=O)c3sc(-c4ccc(Cl)cc4)cc32)cc1` [Compound I-22] as the compound, how does the melting point read?
Answer: 244.1 to 247.5 °C

Question: And the IC50 [1]?
Answer: 131 nM

Question: Which IC50 [1] does the source give for `O=C(Nc1ccc(-c2cc3c(s2)c(=O)ncn3Cc2ccc(Cl)cc2)cc1Cl)c1ccccn1` [Compound I-1, Pyridine-2-carboxylic acid {2-chloro-4-[1-(4-chloro-benzyl)-4-oxo-1,4-dihydro-thieno[3,2-d]pyrimidin-6-yl]-phenyl}-amide] here?
Answer: 2 nM

Question: Which “effect on serum levels of HCV-RNA” value (HCV; monotherapy / sole treatment) does the source give for `NC(=O)c1ncn([C@@H]2O[C@H](CO)[C@@H](O)[C@H]2O)n1` [ribavirin, 1-((2R,3R,4S,5R)-3,4-Dihydroxy-5-hydroxymethyl-tetrahydro-furan-2-yl)-1H-[1,2,4]triazole-3-carboxylic acid amide] here?
Answer: does not lower serum levels of HCV-RNA

Question: What about the “patients with serum amino transferase levels reduced to normal” value (HCV; monotherapy) of the same compound?
Answer: 40%

Question: Which melting point does the source give for `O=c1ncn(Cc2ccc(Cl)cc2)c2cc(-c3ccc(OCc4ccccc4)c(Cl)c3)sc12` [Compound I-44, 6-(4-Benzyloxy-3-chloro-phenyl)-1-(4-chloro-benzyl)-1H-thieno[3,2-d]pyrimidin-4-one] here?
Answer: 222 to 224 °C

Question: What about the IC50 [1] of the same compound?
Answer: 30 nM
